# Square brackets hold non-standard residues; d marks the D form. Peptide text beside a SMILES is read from it.
# How the values were obtained:
# [1] = test system: CXCR4/CXCL12 induced p-MEK; experiment: CXCR4/CXCL12 induced p-MEK in Jurkat cells (ELISA); assay type: cell-based, human; settings: 5 nM CXCL12, 5 min
# Description: The assay was performed following a protocol similar to that described by Peng, et al., Mol Cancer Ther., 14 480-90 (2015), incorporated herein by reference. […] Jurkat cells were resuspended in standard growth media (RPMI+GlutaMax media; Gibco/Thermo Fisher Scientific; Gaithersburg, Md.) containing 10% FBS and 1% penicillin/streptomycin. Assays were performed using fresh or conditioned media (media cultured overnight in presence of Jurkat cells) to resuspend cells at density of 2×10^6 cells/ml and […] of cell suspension was immediately placed in 1.7 ml microfuge tubes. […] Following the 5 min incubation, cells were centrifuged at 1000×g for 4 min at 4° C. The supernatant was removed and the cells were rinsed with 1 ml of HBSS containing calcium and magnesium. The HBSS was removed and the cells were immediately lysed in 150 l of lysis buffer included with Phospho-MEK1 (Ser217/221) Sandwich ELISA kit (Cell Signaling Technology; Danvers, Mass.); lysis buffer was supplemented with 1 m M PMSF (Millipore-Sigma; Saint Louis, Mo.) and Halt protease/phosphatase inhibitor cocktail (Thermo-Fisher; Waltham, Mass.) prior to use. The samples were then placed on ice for 10 min and vortexed periodically. Following the lysis step, the samples were centrifuged at 12,500 rpm for 10 min at 4° C. p-MEK expression in each of the samples was then measure using Phospho-MEK1 (Ser217/221) Sandwich ELISA kit according to manufacturer's instructions. Absorbance was measured using a Cytation 3 plate reader at […] (BioTek; Winooski, Vt.).
# Jurkat cells = experiment: CXCL12 mediated cell migration, Jurkat cells; assay type: cell-based, human; settings: 1.1 μM test article, 100 ng/ml CXCL12, 1 hour
# Description: The assay was performed following a protocol similar to that described by Peng, et al., Mol Cancer Ther., 14480-90 (2015), incorporated herein by reference. Peptides were initially prepared as 1 mM stock in H2O and tested at a final concentration of 1.1 μM. […] Jurkat cells were resuspended in serum free media (RPMI+GlutaMax; Gibco/Thermo Fisher Scientific; Gaithersburg, Md.) containing 0.5% bovine serum albumin at density of 5×10^6 cells/ml. […] Cells (250,000 cells in 50 μl) supplemented with the appropriate treatments were seeded on to the upper chamber of a 96-well 5 μm HTS Transwell filter insert (Corning/Costar; Tewksbury, Mass.). […] Filter inserts were immediately placed on top of 96-well receiver trays and placed at 37° C. in a humidified atmosphere of 5% CO2/95% air for 1 hour. Following the 1 hour incubation period the filter inserts were carefully removed and the migration of cells across the filter into the bottom chamber (receiver wells) was determined by measuring ATP levels using Cell TiterGlo 2.0, according to manufacturer's instructions (Promega; Madison, Wis.); luminescence was measured using a Cytation 3 plate reader (BioTek; Winooski, Vt.).
# human CXCR4 [2] = biological target: T1, human CXCR4 (Homo sapiens, UniProt P61073); experiment: IC50 for inhibition of CXCR4 activation, β-Arrestin recruitment (Example 22); assay type: cell-based; parameters: host or cells: C2C12 (mouse myoblast) CXCR4 β-Arrestin PathHunter cell line
# T1 sequence (P61073 whole entry, the tested form may be a part): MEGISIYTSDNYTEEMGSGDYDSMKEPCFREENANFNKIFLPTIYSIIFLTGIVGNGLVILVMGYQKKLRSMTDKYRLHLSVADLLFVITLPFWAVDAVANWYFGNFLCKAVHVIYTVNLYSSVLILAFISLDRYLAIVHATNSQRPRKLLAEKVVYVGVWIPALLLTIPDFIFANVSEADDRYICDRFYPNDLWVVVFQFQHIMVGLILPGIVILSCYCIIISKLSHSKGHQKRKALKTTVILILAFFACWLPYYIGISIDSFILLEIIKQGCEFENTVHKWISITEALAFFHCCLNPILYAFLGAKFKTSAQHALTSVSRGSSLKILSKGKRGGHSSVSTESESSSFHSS
# Method in brief: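 C2C12 cells co-expressing ProLink-tagged human CXCR4 and Enzyme Acceptor-tagged β-arrestin (PathHunter). Peptides tested in 10-point, 3-fold dilutions from 1 μM (1 μM–0.05 nM). Recruitment read by chemiluminescent enzyme-fragment complementation after 90 min incubation.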
# human CXCR4 [3] = biological target: T1, human CXCR4; experiment: CXCR4/CXCL12 binding, HTRF format, single concentration (Example 23); parameters: host or cells: HEK293 (Tag-lite CXCR4 cells, frozen aliquots, transient expression); settings: 15 nM CXCR4R fluorescent probe, 3 hours, HEK293 Tag-lite CXCR4 cells
# Method in brief: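 Tag-lite CXCR4 cells were exposed to peptide at 400 nM final with 15 nM (EC80) fluorescent CXCR4 probe for 3 h at room temperature. HTRF was read, and the 665/620 nm ratio ×10,000 measured probe bound to terbium-labelled receptor.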
Compound,IC50 (human CXCR4 [2]) [nM],Percent Inhibition of CXCR4/CXCL12 Binding (400 nM peptide) (human CXCR4 [3]) [%],Percent Inhibition of CXCR4/CXCL12 Induced p-MEK (100 nM Test Article) [1] [%],Percent Inhibition of CXCR4/CXCL12 Induced p-MEK (1 μM Test Article) [1] [%],Percent Inhibition of CXCL12 Mediated Migration (1.1 μM Test Article) (Jurkat cells) [%]
CC(C)C[C@H](NC(=O)[C@H](CO)NC(=O)[C@@H](NC(=O)[C@H](CCCNC(=N)N)NC(=O)[C@@H](NC(=O)[C@H](CO)NC(=O)[C@H](Cc1c[nH]cn1)NC(=O)[C@H](Cc1c[nH]cn1)NC(=O)[C@H](Cc1ccc(O)cc1)NC(=O)[C@H](CCCNC(=N)N)NC(=O)[C@H](CCCNC(=N)N)NC(=O)[C@@H](N)CC(C)C)C(C)C)[C@@H](C)O)C(=O)N[C@@H](CCCNC(=N)N)C(=O)N1CCC[C@H]1C(=O)N[C@@H](Cc1ccc(O)cc1)C(=O)N[C@H](C(=O)N[C@@H](CCCCN)C(=O)O)[C@@H](C)O [compound 70] (H-LRRYHHSVRTSLRPYTK-OH; N-terminus and C-terminus assumed),,11,57,93,21
CC(C)C[C@H](NC(=O)[C@H](CO)NC(=O)[C@H](CO)NC(=O)[C@H](CCCNC(=N)N)NC(=O)[C@@H](NC(=O)[C@H](CO)NC(=O)[C@H](Cc1c[nH]cn1)NC(=O)[C@H](Cc1c[nH]cn1)NC(=O)[C@H](Cc1ccc(O)cc1)NC(=O)[C@H](CCCNC(=N)N)NC(=O)[C@H](CCC(=O)O)NC(=O)[C@@H](N)CC(C)C)C(C)C)C(=O)N[C@@H](CCCNC(=N)N)C(=O)N1CCC[C@H]1C(=O)N[C@@H](Cc1ccc(O)cc1)C(=O)N[C@H](C(=O)O)[C@@H](C)O [compound 18] (H-LERYHHSVRSSLRPYT-OH; N-terminus and C-terminus assumed),,57,45,78,66
CC(C)C[C@H](NC(=O)[C@H](CO)NC(=O)[C@H](CO)NC(=O)[C@H](CCCNC(=N)N)NC(=O)[C@@H](C)NC(=O)[C@H](CO)NC(=O)[C@H](Cc1c[nH]cn1)NC(=O)[C@H](Cc1c[nH]cn1)NC(=O)[C@H](Cc1ccc(O)cc1)NC(=O)[C@H](CCCNC(=N)N)NC(=O)[C@H](CCC(=O)O)NC(=O)[C@@H](N)CC(C)C)C(=O)N[C@@H](CCCNC(=N)N)C(=O)N1CCC[C@H]1C(=O)N[C@@H](Cc1ccccc1)C(=O)N[C@H](C(=O)N[C@@H](CCCCN)C(=O)O)[C@@H](C)O [compound 61] (H-LERYHHS[dA]RSSLRPFTK-OH; N-terminus and C-terminus assumed),8,54,15,46,
CC(C)C[C@H](NC(=O)[C@H](CO)NC(=O)[C@H](CO)NC(=O)[C@H](CCCNC(=N)N)NC(=O)[C@@H](NC(=O)[C@H](CO)NC(=O)[C@H](Cc1c[nH]cn1)NC(=O)[C@H](Cc1c[nH]cn1)NC(=O)[C@H](Cc1ccc(O)cc1)NC(=O)[C@H](CCCNC(=N)N)NC(=O)[C@H](CCCNC(=N)N)NC(=O)[C@@H](N)CC(C)C)C(C)C)C(=O)N[C@@H](CC(=O)O)C(=O)N1CCC[C@H]1C(=O)N[C@@H](Cc1ccc(O)cc1)C(=O)N[C@H](C(=O)N[C@@H](CCCCN)C(=O)O)[C@@H](C)O [compound 67] (H-LRRYHHSVRSSLDPYTK-OH; N-terminus and C-terminus assumed),14,3,−8,42,
CC(C)C[C@H](NC(=O)[C@H](CO)NC(=O)[C@H](CO)NC(=O)[C@H](CCCNC(=N)N)NC(=O)[C@@H](C)NC(=O)[C@H](CO)NC(=O)[C@H](Cc1c[nH]cn1)NC(=O)[C@H](CC(N)=O)NC(=O)[C@H](Cc1ccc(O)cc1)NC(=O)[C@H](CCCNC(=N)N)NC(=O)[C@H](CCC(=O)O)NC(=O)[C@@H](N)CC(C)C)C(=O)N[C@@H](CCCNC(=N)N)C(=O)N1CCC[C@H]1C(=O)N[C@@H](Cc1ccc(O)cc1)C(=O)N[C@H](C(=O)N[C@@H](CCCCN)C(=O)O)[C@@H](C)O [compound 43] (H-LERYNHS[dA]RSSLRPYTK-OH; N-terminus and C-terminus assumed),14,53,5,40,

# More lines, main results first:
IC50 (human CXCR4 [2]) [nM],Percent Inhibition of CXCR4/CXCL12 Binding (400 nM peptide) (human CXCR4 [3]) [%],Compound,Percent Inhibition of CXCR4/CXCL12 Induced p-MEK (100 nM Test Article) [1] [%],Percent Inhibition of CXCR4/CXCL12 Induced p-MEK (1 μM Test Article) [1] [%],Percent Inhibition of CXCL12 Mediated Migration (1.1 μM Test Article) (Jurkat cells) [%]
3,5,CC(C)C[C@H](NC(=O)[C@H](CO)NC(=O)[C@H](CO)NC(=O)[C@H](CCCNC(=N)N)NC(=O)[C@@H](NC(=O)[C@H](CO)NC(=O)[C@H](Cc1c[nH]cn1)NC(=O)[C@H](Cc1c[nH]cn1)NC(=O)[C@H](Cc1ccccc1)NC(=O)[C@H](CCCNC(=N)N)NC(=O)[C@H](CCCNC(=N)N)NC(=O)[C@@H](N)CC(C)C)C(C)C)C(=O)N[C@@H](CCCNC(=N)N)C(=O)N1CCC[C@H]1C(=O)N[C@@H](Cc1ccc(O)cc1)C(=O)N[C@H](C(=O)N[C@@H](CCCCN)C(=O)O)[C@@H](C)O [compound 53] (H-LRRFHHSVRSSLRPYTK-OH; N-terminus and C-terminus assumed),62,98,59
6,75,CC(C)C[C@H](NC(=O)[C@H](CO)NC(=O)[C@@H](NC(=O)[C@H](CCCNC(=N)N)NC(=O)[C@@H](C)NC(=O)[C@H](CO)NC(=O)[C@H](Cc1c[nH]cn1)NC(=O)[C@H](Cc1c[nH]cn1)NC(=O)[C@H](Cc1ccc(O)cc1)NC(=O)[C@H](CCCNC(=N)N)NC(=O)[C@H](CCC(=O)O)NC(=O)[C@@H](N)CC(C)C)[C@@H](C)O)C(=O)N[C@@H](CCCNC(=N)N)C(=O)N1CCC[C@H]1C(=O)N[C@@H](Cc1ccc(O)cc1)C(=O)N[C@H](C(=O)N[C@@H](CCCCN)C(=O)O)[C@@H](C)O [compound 76] (H-LERYHHS[dA]RTSLRPYTK-OH; N-terminus and C-terminus assumed),5,44,
7,77,CC(C)C[C@H](NC(=O)[C@H](CO)NC(=O)[C@H](CO)NC(=O)[C@H](CCCNC(=N)N)NC(=O)[C@@H](NC(=O)[C@H](CO)NC(=O)[C@H](Cc1c[nH]cn1)NC(=O)[C@H](Cc1c[nH]cn1)NC(=O)[C@H](Cc1ccc(O)cc1)NC(=O)[C@H](CCCNC(=N)N)NC(=O)[C@H](CCCNC(=N)N)NC(=O)[C@@H](C)N)C(C)C)C(=O)N[C@@H](CCCNC(=N)N)C(=O)N1CCC[C@H]1C(=O)N[C@@H](Cc1ccc(O)cc1)C(=O)N[C@H](C(=O)N[C@@H](CCCCN)C(=O)O)[C@@H](C)O [compound 33] (H-[dA]RRYHHSVRSSLRPYTK-OH; N-terminus and C-terminus assumed),7,42,
